This is an account of results in patent US12590087B2, “Inhibiting USP36” (Valo Health, Inc., priority 2019, dated 2026).

In this assay the target is T1, human USP36 (81-461) (Homo sapiens, UniProt Q9P275).
T1 sequence (Q9P275 81-461): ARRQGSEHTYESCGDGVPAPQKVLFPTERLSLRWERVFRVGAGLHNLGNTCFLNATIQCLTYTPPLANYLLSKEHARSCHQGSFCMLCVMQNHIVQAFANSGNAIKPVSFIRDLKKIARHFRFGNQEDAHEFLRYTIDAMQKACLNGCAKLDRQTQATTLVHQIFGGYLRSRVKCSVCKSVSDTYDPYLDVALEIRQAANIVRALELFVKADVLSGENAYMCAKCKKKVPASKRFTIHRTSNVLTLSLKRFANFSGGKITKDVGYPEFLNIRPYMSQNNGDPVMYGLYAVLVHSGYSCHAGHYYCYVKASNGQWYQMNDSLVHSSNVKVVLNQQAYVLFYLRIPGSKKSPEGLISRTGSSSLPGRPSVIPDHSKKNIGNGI
Put plainly: USP36 inhibition biochemical assay. The note with it: read-out: USP 36 IC50; 2 nM human USP36 (81-461), 25 nM Ub-Rh110MP substrate, 30 minutes preincubation with compound, fluorescence rate over 10 minutes.

Structures are written as SMILES.

Experimental: Test compounds were serially diluted in DMSO (Sigma, G7516) to obtain 10-point, 3-fold series. […] Enzyme and substrate concentrations and incubation times were optimized for the maximal signal-to-background while maintaining linear initial velocity conditions at a fixed substrate concentration below Km.
Rates were calculated by: rate=((final FLU−initial FLU)/600 seconds) where final FLU=fluorescence at time 10 minutes, initial FLU=fluorescence at time 0 minutes and 600=duration of reaction in seconds.
Data were reported as percent inhibition compared with control wells based on the following equation: % inh=100*((rate−AveLow)/(AveHigh−AveLow)) where rate=measured rate of fluorescence generated during assay, AveLow=average rate of no enzyme control (n=32), and AveHigh=average rate of DMSO control (n=32).
Data were fitted using the Levenburg Marquardt algorithm.

As usually defined, the IC50 is the point on the concentration scale where inhibition reaches its midpoint. Turning to `O=C(Nc1snnc1C(=O)Nc1ccc(N2CCCC2)cc1)c1cncc(C(F)(F)F)c1` [Compound 1, N-(4-(pyrrolidin-1-yl)phenyl)-5-(5-(trifluoromethyl)nicotinamido)-1,2,3-thiadiazole-4-carboxamide], the IC50 amounted to 198 nM.
